This is an account of results in PMC8776063, “Aurora Kinase A Is Involved in Controlling the Localization of Aquaporin-2 in Renal Principal Cells” (International Journal of Molecular Sciences, 2022).

Read-outs that look alike come from different tables or passages of the source.

Data set [1] relates to MCD4 cells. Nature of the data set: AQP2 redistribution, immunofluorescence microscopy. The settings on record: compound 30 µM, 1 h (Aurora-A inhibitor I 1-30 µM), forskolin 30 µM, 30 min.
The subject of data set [2] is M12 cells. The arrangement: method as in PMID 25090971. The settings on record: cited from earlier work.
Data set [3] relates to complex of AURKA and TPX2. Details: method as in PMID 26732741. The note with it: cited from earlier work.
The test system of data set [4] is MCD4 cells. The experiment in a line: F-actin stress fiber staining (phalloidin). It is filed as cell-based, mouse. The note with it: compound 30 µM, 1 h.
Data set [5] relates to primary IMCD cells. Nature of the data set: F-actin stress fiber staining (phalloidin). In kind it is cell-based, rat. The settings on record: compound 20 µM, 1 h.
Data set [6] deals with primary IMCD cells. The experiment in a line: AQP2 redistribution, immunofluorescence microscopy. The note with it: compound 20 µM, 1 h (Aurora-A inhibitor I 1-30 µM), AVP 100 nM, 30 min.
For data set [7], the system named is CFL1 phosphorylation in MCD4 cells. The experiment in a line: CFL1 phosphorylation, Western blotting. The settings on record: compound 30 µM, 1 h. In kind it is cell-based, mouse. A general note: In western blotting, separated proteins are transferred to a membrane and probed.
Data set [8] addresses T1, AURKA (Homo sapiens, UniProt O14965).
T1 construct: full-length wild-type AURKA, AURKB, and AURKC were obtained as plasmids cloned in frame with a C-terminal NanoLuc-fusion; host or cells: HEK293T
T1 sequence (O14965 1-403): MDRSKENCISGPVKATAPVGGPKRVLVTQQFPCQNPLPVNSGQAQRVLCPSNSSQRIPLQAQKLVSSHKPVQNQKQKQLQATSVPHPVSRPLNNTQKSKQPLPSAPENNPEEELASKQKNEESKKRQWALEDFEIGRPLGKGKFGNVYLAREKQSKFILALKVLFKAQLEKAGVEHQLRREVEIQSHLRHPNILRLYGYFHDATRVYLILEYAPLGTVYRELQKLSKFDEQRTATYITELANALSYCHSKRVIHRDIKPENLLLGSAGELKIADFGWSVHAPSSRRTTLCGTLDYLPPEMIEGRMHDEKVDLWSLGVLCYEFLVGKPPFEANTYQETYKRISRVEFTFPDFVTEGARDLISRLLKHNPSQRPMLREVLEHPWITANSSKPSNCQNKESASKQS
Nature of the data set: NanoBRET assay in HEK293T cells. In kind it is cell-based. The note with it: NanoBRET. For orientation: Bioluminescence resonance energy transfer reports proximity on the nanometre scale.

Data set [9] has as its target T2, AURKC (Homo sapiens, UniProt Q9UQB9).
T2 construct: full-length wild-type AURKA, AURKB, and AURKC were obtained as plasmids cloned in frame with a C-terminal NanoLuc-fusion; host or cells: HEK293T
T2 sequence (Q9UQB9 1-309): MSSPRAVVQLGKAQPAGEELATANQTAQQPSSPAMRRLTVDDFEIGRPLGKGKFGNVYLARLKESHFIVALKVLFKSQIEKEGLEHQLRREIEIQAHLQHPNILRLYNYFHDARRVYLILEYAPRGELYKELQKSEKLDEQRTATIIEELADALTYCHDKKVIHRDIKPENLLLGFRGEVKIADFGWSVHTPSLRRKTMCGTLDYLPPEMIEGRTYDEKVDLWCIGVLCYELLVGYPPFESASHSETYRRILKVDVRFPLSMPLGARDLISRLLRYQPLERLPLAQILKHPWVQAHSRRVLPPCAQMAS
Nature of the data set: NanoBRET assay in HEK293T cells. The note with it: NanoBRET, Figure 6B, read-out: affinity to intracellular AURKC. It is filed as cell-based.

For data set [10], the target named is AURKB (Homo sapiens, UniProt Q96GD4). The experiment in a line: NanoBRET assay in HEK293T cells. The settings on record: NanoBRET. The arrangement: full-length wild-type AURKA, AURKB, and AURKC were obtained as plasmids cloned in frame with a C-terminal NanoLuc-fusion; host or cells: HEK293T. It is filed as cell-based.
Data set [11] has as its system MCD4 cells. Nature of the data set: MTS assay (cell viability). The settings on record: 30 µM, 10 µM or 1 µM, 1 h; compared to untreated cells. In kind it is cell-based, mouse.
Data set [12] has as its target T3, STK17A (Homo sapiens, UniProt Q9UEE5).
T3 construct: purchased in-house thermal shift (DSF) kinase panel (SGC Frankfurt); Promega NanoBRET for AURKA/B/C
T3 sequence (Q9UEE5 61-321): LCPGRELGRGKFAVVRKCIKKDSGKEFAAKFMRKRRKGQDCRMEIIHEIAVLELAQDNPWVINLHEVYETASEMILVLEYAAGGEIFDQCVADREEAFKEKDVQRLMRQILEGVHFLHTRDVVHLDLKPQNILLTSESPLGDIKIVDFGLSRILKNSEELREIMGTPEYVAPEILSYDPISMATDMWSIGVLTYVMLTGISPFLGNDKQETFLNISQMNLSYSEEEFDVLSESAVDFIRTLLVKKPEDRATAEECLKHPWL
Nature of the data set: Thermal shift assay. It is filed as binding. The note with it: read-out: ΔTm STK17A.

The target in data set [13] is T4, STK3 (Homo sapiens, UniProt Q13188).
T4 construct: purchased in-house thermal shift (DSF) kinase panel (SGC Frankfurt); Promega NanoBRET for AURKA/B/C
T4 sequence (Q13188 16-313): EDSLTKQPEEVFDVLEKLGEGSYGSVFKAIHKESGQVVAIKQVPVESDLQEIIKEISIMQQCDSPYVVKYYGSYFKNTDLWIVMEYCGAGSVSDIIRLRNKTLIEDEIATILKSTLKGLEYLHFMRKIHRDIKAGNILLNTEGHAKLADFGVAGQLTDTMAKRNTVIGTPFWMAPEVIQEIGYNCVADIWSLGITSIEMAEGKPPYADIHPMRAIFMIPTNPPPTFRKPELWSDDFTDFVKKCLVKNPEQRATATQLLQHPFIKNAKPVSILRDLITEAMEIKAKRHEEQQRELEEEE
Nature of the data set: Thermal shift assay. In kind it is binding. The note with it: read-out: ΔTm STK3.

Data set [14] addresses T5, STK39 (Homo sapiens, UniProt Q9UEW8).
T5 construct: purchased in-house thermal shift (DSF) kinase panel (SGC Frankfurt); Promega NanoBRET for AURKA/B/C
The experiment in a line: Thermal shift assay. It is filed as binding. The settings on record: read-out: ΔTm STK39.

Data set [15] deals with T6, CAMKK2 (Homo sapiens, UniProt Q96RR4).
T6 construct: purchased in-house thermal shift (DSF) kinase panel (SGC Frankfurt); Promega NanoBRET for AURKA/B/C
The experiment in a line: Thermal shift assay. It is filed as binding. The note with it: read-out: ΔTm CAMKK2.

Setting [16] is: n = 2, mean, Figure 6B, read-out: affinity to intracellular AURKA.
The mark [17] stands for this setting: HEK293T cells overexpressing the kinase, Table 2, read-out: AURKB IC50.
Setting [18] is: HEK293T cells overexpressing the kinase, Table 2, read-out: AURKA IC50.

Chain of AURKB (Q96GD4 whole entry, the tested form may be a part): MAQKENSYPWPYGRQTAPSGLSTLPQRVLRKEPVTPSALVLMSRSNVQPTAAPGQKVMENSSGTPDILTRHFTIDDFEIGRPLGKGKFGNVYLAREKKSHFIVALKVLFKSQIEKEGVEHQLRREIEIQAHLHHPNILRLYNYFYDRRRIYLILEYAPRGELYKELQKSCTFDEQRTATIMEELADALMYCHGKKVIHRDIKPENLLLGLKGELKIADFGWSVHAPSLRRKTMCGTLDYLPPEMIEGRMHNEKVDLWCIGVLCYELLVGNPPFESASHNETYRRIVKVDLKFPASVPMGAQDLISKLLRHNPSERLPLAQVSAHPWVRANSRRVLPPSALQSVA
T6 sequence (Q96RR4 161-449): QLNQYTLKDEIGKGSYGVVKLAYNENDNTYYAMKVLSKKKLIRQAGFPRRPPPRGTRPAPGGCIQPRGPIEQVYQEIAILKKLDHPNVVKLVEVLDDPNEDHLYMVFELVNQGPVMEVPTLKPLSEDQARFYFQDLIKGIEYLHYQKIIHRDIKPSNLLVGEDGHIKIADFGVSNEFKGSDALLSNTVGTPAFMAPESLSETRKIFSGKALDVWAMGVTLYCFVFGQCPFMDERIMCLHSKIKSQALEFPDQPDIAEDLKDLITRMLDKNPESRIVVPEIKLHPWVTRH

For the molecule `COc1cc(Nc2ncc3c(n2)-c2ccc(Cl)cc2C(c2c(F)cccc2OC)=NC3)ccc1C(=O)O` [Alisertib, reference compound], the “inhibition of the forskolin-induced redistribution of AQP2 to the plasma membrane” value in data set [1] is recorded as “significantly inhibited”. For the same molecule, the “phosphorylation of CFL1” value in data set [2] was “increased”. Besides, the “decrease of affinity for AURKA in the presence of TPX2” value in data set [3] is given as 5.8 fold. Further, the “effect on actin stress fibers” value in [4] and in data set [5] was “promoted or maintained the formation of actin stress fibers” in each case. Further, the “inhibition of the AVP-induced redistribution of AQP2 to the plasma membrane” value in data set [6] was “significantly inhibited”. Further, in [7] (no forskolin), the “CFL1 phosphorylation in resting cells” value is “not reduced”.

Regarding `CCN(CCO)CCCOc1ccc2c(Nc3cc(CC(=O)Nc4cccc(F)c4)n[nH]3)ncnc2c1` [Barasertib-HQPA, reference compound], in [1], the “inhibition of the forskolin-induced redistribution of AQP2 to the plasma membrane” value was “did not”. In addition, the “effect on actin stress fibers” value in data set [4] and in [5] was “resembled those of the control cells” throughout. In addition, the “inhibition of the AVP-induced redistribution of AQP2 to the plasma membrane” value in [6] is reported as “No inhibitory effect”. For the same molecule, the CFL1 phosphorylation entry in data set [7] (absence and presence of forskolin) is “no effect”.

On to `O=C(O)Cc1ccc(Nc2ncc(F)c(Nc3ccc(C(=O)Nc4ccccc4Cl)cc3)n2)cc1` [ERJ2-02], for which the IC50 was 1.33 µM in [8] (setting [16]); over 50 µM in data set [9] (n = 2, bounds); over 50 µM in data set [10] (setting [17]).

For `O=C(Nc1ccccc1Cl)c1ccc(Nc2nc(Nc3ccc(CC(=O)N4CCOCC4)cc3)ncc2F)cc1` [ERJ2-03], the “viability of MCD4 cells” value in [11] is recorded as “reduced by 10 or 30 µM”. Further, the “inhibition of the forskolin-induced redistribution of AQP2 to the plasma membrane” value in data set [1] is “not being an inhibitor”. Besides, the IC50 in data set [8] (setting [18]) was 1.08 µM; in [9] (n = 2, bounds), over 50 µM; in [10] (setting [17]) it was over 50 µM.

Regarding `COCCNC(=O)Cc1ccc(Nc2ncc(F)c(Nc3ccc(C(=O)Nc4ccccc4Cl)cc3)n2)cc1` [ERJ2-05], in data set [11], the “viability of MCD4 cells” value is listed as “partly increased”. Moreover, the IC50 in data set [8] (setting [16]) was 0.24 µM; in data set [9] (n = 2, mean), 12.9 µM; in data set [10] (n = 2, mean, Figure 6B, read-out: affinity to intracellular AURKB), 16.8 µM.

Regarding `O=C(Cc1ccc(Nc2ncc(F)c(Nc3ccc(C(=O)Nc4ccccc4Cl)cc3)n2)cc1)NCCO` [ERJ2-08], in data set [11], the “viability of MCD4 cells” value was “partly increased”. The IC50 in data set [8] (setting [18]) amounted to 0.237 µM; in data set [9] (n = 2, mean) it was 17 µM; in data set [10] (setting [17]) it was 16.1 µM.

Take `O=C(O)c1ccc(Nc2ncc(F)c(Nc3ccc(C(=O)O)cc3)n2)cc1` [ERJ2-09]: in data set [10] (setting [17]), the IC50 was over 50 µM.

On to `O=C(O)Cc1ccc(Nc2ncc(F)c(Nc3ccc(C(=O)Nc4ccccc4)cc3)n2)cc1` [ERJ2-10], for which the IC50 in [8] (setting [18]) is 22.8 µM; in [9] (n = 2, bounds), over 50 µM; in [10] (setting [17]), over 50 µM.

As to `CCN1CCN(C(=O)Cc2ccc(Nc3ncc(F)c(Nc4ccc(C(=O)N5CCN(CC)CC5)cc4)n3)cc2)CC1` [ERJ2-13], the IC50 in [8] (setting [18]) is 37.3 µM; in [9] (n = 2, bounds), over 50 µM; in [10] (setting [17]), over 50 µM.

Turning to `CCN1CCN(C(=O)Cc2ccc(Nc3ncc(F)c(Nc4ccc(C(=O)NCCN5CCCC5)cc4)n3)cc2)CC1` [ERJ2-16], the IC50 is over 50 µM in data set [8] (setting [18]); over 50 µM in [9] (n = 2, bounds); over 50 µM in data set [10] (setting [17]).

As usually defined, the ΔTm is the change in melting temperature against a reference sample. In the case of `CN[C@@H]1C[C@H]2O[C@@](C)([C@@H]1OC)n1c3ccccc3c3c4c(c5c6ccccc6n2c5c31)C(=O)NC4` [Staurosporine, reference compound], the ΔTm at 10 µM in [12] is 12.9 °C; in data set [13] it was 13.7 °C; in [14], 9.9 °C; in data set [15] it was 24.2 °C.
